This note sets out measurements from patent publication US12479830B2, “Homopiperazinyl and homopiperidinyl quinazolin-4(3H)-one derivatives having multimodal activity against pain” (ESTEVE PHARMACEUTICALS, S.A., priority 2019, dated 2025).

A word on the pKi: it is the negative decadic logarithm of the Ki, by convention in mol/L.

Test [1] concerns the target T1, Human σ1 receptor (Homo sapiens, UniProt Q99720).
T1 construct: expressed in transfected cells; host or cells: HEK-293
In words: Human σ1 receptor radioligand assay ([3H](+)-pentazocine binding). To be noted: binding to the σ1 receptor, expressed as Ki class; + also covers inhibition between 1% and 50%. The method in brief:
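Membranes (7 μg) were incubated with 5 nM [3H](+)-pentazocine in 50 mM Tris-HCl pH 8 for 120 min at 37° C. Non-specific binding was defined with 10 μM haloperidol. Values are % inhibition at 1 or 10 μM or Ki from five concentrations, read by filtration and scintillation counting.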

The target of test [2] is Human α2δ-1 subunit of Cav2.2 calcium channel (Homo sapiens, UniProt P54289). Nature of the test: Human α2δ-1 subunit of Cav2.2 calcium channel assay ([3H]-gabapentin binding). To be noted: binding to the α2δ-1 subunit of voltage-gated calcium channels, expressed as Ki class; + also covers inhibition between 1% and 50%. The method in brief:
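Human α2δ-1 enriched membranes (2.5 μg) incubated 60 min at 27° C. with 15 nM [3H]-gabapentin in 10 mM Hepes-KOH pH 7.4; non-specific binding with 10 μM pregabalin. Filtration binding; % inhibition at 1 or 10 μM, or Ki from five concentrations.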

pKi: −log10 of the molar value. Some results are limits rather than exact numbers.

Sequence of Human α2δ-1 subunit of Cav2.2 calcium channel (P54289 25-1103): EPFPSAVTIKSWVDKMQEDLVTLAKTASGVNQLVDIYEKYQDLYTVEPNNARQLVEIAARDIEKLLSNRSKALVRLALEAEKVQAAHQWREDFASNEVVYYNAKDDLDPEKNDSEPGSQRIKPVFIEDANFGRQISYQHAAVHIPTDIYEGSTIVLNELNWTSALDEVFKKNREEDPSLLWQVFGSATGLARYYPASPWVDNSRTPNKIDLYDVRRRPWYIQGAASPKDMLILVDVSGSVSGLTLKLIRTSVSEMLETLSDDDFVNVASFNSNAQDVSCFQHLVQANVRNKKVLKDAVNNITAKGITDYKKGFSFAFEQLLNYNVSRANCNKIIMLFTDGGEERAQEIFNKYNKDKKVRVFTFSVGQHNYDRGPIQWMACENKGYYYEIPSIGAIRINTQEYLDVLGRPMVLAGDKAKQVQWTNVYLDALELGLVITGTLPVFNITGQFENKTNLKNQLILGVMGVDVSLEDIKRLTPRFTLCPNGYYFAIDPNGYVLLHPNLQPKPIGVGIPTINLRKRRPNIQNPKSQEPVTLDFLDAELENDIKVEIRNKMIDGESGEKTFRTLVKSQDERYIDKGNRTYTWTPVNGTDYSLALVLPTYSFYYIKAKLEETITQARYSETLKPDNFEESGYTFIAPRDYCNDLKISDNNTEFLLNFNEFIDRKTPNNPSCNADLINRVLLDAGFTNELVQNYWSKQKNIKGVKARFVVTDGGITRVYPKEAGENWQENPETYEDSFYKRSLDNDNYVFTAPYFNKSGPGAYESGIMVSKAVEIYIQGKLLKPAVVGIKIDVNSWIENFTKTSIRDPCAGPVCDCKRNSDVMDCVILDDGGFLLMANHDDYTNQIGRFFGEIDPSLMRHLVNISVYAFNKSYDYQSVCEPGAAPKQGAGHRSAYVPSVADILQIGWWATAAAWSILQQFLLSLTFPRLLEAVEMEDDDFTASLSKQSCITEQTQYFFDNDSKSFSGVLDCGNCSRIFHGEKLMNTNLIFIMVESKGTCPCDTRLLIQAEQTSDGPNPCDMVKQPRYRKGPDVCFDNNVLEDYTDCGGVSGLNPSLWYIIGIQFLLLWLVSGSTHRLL
T1 sequence (Q99720 whole entry): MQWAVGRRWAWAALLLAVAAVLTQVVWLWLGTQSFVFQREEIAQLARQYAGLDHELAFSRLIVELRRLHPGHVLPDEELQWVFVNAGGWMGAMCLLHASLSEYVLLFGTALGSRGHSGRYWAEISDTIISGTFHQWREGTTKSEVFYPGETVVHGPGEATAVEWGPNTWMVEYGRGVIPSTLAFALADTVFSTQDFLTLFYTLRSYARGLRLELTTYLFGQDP

With `CCC[C@H](c1nc2ccc(Cl)cc2c(=O)n1CCC)N1CCCN(C)CC1` [Example 159, (R)-6-Chloro-2-(1-(4-methyl-1,4-diazepan-1-yl)butyl)-3-propylquinazolin-4(3H)-one], the pKi in test [1] and in test [2] was above 6.30 in each case.

For the compound `CCC[C@@H](c1nc2ccc(Cl)cc2c(=O)n1CCC)N1CCCN(C)CC1` [Example 160, (S)-6-chloro-2-(1-(4-methyl-1,4-diazepan-1-yl)butyl)-3-propylquinazolin-4(3H)-one], the figures for the negative-log Ki (pKi) in test [1] and in test [2] were below 6.00 and below 5.30, respectively.

Consider `CCC[C@H](c1nc2c(F)cc(Br)cc2c(=O)n1CC)N1CCCN(C)CC1` [Example 161, (R)-6-Bromo-3-ethyl-8-fluoro-2-(1-(4-methyl-1,4-diazepan-1-yl)butyl)quinazolin-4(3H)-one], for which the pKi in test [1] was 6.00 to 6.30; in test [2] it was above 6.30.

Take `CCC[C@@H](c1nc2c(F)cc(Br)cc2c(=O)n1CC)N1CCCN(C)CC1` [Example 162, (S)-6-bromo-3-ethyl-8-fluoro-2-(1-(4-methyl-1,4-diazepan-1-yl)butyl)quinazolin-4(3H)-one]: the figures for the pKi in test [1] and in test [2] were 6.00 to 6.30 and below 5.30, respectively.

For the compound `CCCC(c1nc2ccncc2c(=O)n1CC)N1CCCN(C)CC1` (stereo not shown) [Example 163, 3-Ethyl-2-(1-(4-methyl-1,4-diazepan-1-yl)butyl)pyrido[4,3-d]pyrimidin-4(3H)-one], the pKi in test [1] is below 6.00; in test [2] it was above 6.30.

Consider `CCC[C@H](c1nc2ccncc2c(=O)n1CC)N1CCNC[C@H](C)C1` [Example 164, 3-ethyl-2-((R)-1-((S)-6-methyl-1,4-diazepan-1-yl)butyl)pyrido[4,3-d]pyrimidin-4(3H)-one], for which the pKi in test [1] was below 6.00; in test [2], above 6.30.

As to `CCC[C@H](c1nc2ccncc2c(=O)n1CC)N1CCNC[C@@H](C)C1` [Example 165, 3-ethyl-2-((R)-1-((R)-6-methyl-1,4-diazepan-1-yl)butyl)pyrido[4,3-d]pyrimidin-4(3H)-one], the results for the pKi in test [1] and in test [2] were below 6.00 and above 6.30, respectively.

On to `CCC[C@@H](c1nc2ccncc2c(=O)n1CC)N1CCNC[C@H](C)C1` [Example 166, 3-ethyl-2-((S)-1-((S)-6-methyl-1,4-diazepan-1-yl)butyl)pyrido[4,3-d]pyrimidin-4(3H)-one], for which the negative logarithm of the Ki (pKi) in test [1] is below 6.00; in test [2], below 5.30.

As for `CCC[C@@H](c1nc2ccncc2c(=O)n1CC)N1CCNC[C@@H](C)C1` [Example 167, 3-ethyl-2-((S)-1-((R)-6-methyl-1,4-diazepan-1-yl)butyl)pyrido[4,3-d]pyrimidin-4(3H)-one], the pKi was below 6.00 in test [1] and 5.30 to 6.30 in test [2].

For the compound `CCC[C@H](c1nc2ccncc2c(=O)n1CC)N1CCN(C)C[C@@H](C)C1` [Example 168, 2-((R)-1-((R)-4,6-dimethyl-1,4-diazepan-1-yl)butyl)-3-ethylpyrido[4,3-d]pyrimidin-4(3H)-one], the values for the pKi in test [1] and in test [2] were below 6.00 and above 6.30, respectively.

As to `CCC[C@H](c1nc2ccncc2c(=O)n1CC)N1CCN(C)C[C@H](C)C1` [Example 169, 2-((R)-1-((S)-4,6-dimethyl-1,4-diazepan-1-yl)butyl)-3-ethylpyrido[4,3-d]pyrimidin-4(3H)-one], the pKi in test [1] was below 6.00; in test [2], above 6.30.

For `CCC[C@@H](c1nc2ccncc2c(=O)n1CC)N1CCN(C)C[C@H](C)C1` [Example 170, 2-((S)-1-((S)-4,6-dimethyl-1,4-diazepan-1-yl)butyl)-3-ethylpyrido[4,3-d]pyrimidin-4(3H)-one], the pKi is below 6.00 in test [1] and 5.30 to 6.30 in test [2].

Turning to `CCC[C@@H](c1nc2ccncc2c(=O)n1CC)N1CCN(C)C[C@@H](C)C1` [Example 171, 2-((S)-1-((R)-4,6-dimethyl-1,4-diazepan-1-yl)butyl)-3-ethylpyrido[4,3-d]pyrimidin-4(3H)-one], the pKi in test [1] is below 6.00; in test [2], below 5.30.

Consider `CCCC(c1nc2ccncc2c(=O)n1CC)N1CCCNCC1` (stereo not shown) [Example 172, 2-(1-(1,4-diazepan-1-yl)butyl)-3-ethylpyrido[4,3-d]pyrimidin-4(3H)-one], for which the pKi in test [1] is below 6.00; in test [2], above 6.30.

As to `CCC[C@H](c1nc2ccncc2c(=O)n1CC)N1CCCN(C)CC1` [Example 173, (R)-3-Ethyl-2-(1-(4-methyl-1,4-diazepan-1-yl)butyl)pyrido[4,3-d]pyrimidin-4(3H)-one], the pKi in test [1] was below 6.00; in test [2], above 6.30.

Regarding `CCC[C@@H](c1nc2ccncc2c(=O)n1CC)N1CCCN(C)CC1` [Example 174, (S)-3-ethyl-2-(1-(4-methyl-1,4-diazepan-1-yl)butyl)pyrido[4,3-d]pyrimidin-4(3H)-one], the pKi in test [1] is below 6.00; in test [2], below 5.30.

As to `CCCC(c1nc2ncc(Br)cc2c(=O)n1CC)N1CCCN(C)CC1` (stereo not shown) [Example 175, 6-Bromo-3-ethyl-2-(1-(4-methyl-1,4-diazepan-1-yl)butyl)pyrido[2,3-d]pyrimidin-4(3H)-one], the pKi in test [1] was below 6.00; in test [2], above 6.30.

As to `CCC[C@H](c1nc2ncc(Br)cc2c(=O)n1CC)N1CCCN(CC)CC1` [Example 176, 6-bromo-3-ethyl-2-(1-(4-ethyl-1,4-diazepan-1-yl)butyl)pyrido[2,3-d]pyrimidin-4(3H)-one], the pKi in test [1] was below 6.00; in test [2] it was below 5.30.

For the compound `CCCC(c1nc2ncc(Br)cc2c(=O)n1CC)N1CCCNCC1` (stereo not shown) [Example 177, 2-(1-(1,4-diazepan-1-yl)butyl)-6-bromo-3-ethylpyrido[2,3-d]pyrimidin-4(3H)-one], the pKi in test [1] was below 6.00; in test [2], above 6.30.

On to `CCCC(c1nc2ncccc2c(=O)n1CC)N1CCCN(CC)CC1` (stereo not shown) [Example 178, 3-ethyl-2-(1-(4-ethyl-1,4-diazepan-1-yl)butyl)pyrido[2,3-d]pyrimidin-4(3H)-one], for which the figures for the pKi in test [1] and in test [2] were below 6.00 and above 6.30, respectively.

Consider `CCCC(c1nc2ncccc2c(=O)n1CC)N1CCCNCC1` (stereo not shown) [Example 179, 2-(1-(1,4-diazepan-1-yl)butyl)-3-ethylpyrido[2,3-d]pyrimidin-4(3H)-one], for which the values for the pKi in test [1] and in test [2] were below 6.00 and 5.30 to 6.30, respectively.

Consider `CCCC(c1nc2ncccc2c(=O)n1CC)N1CCCN(C)CC1` (stereo not shown) [Example 180, 3-ethyl-2-(1-(4-methyl-1,4-diazepan-1-yl)butyl)pyrido[2,3-d]pyrimidin-4(3H)-one], for which the pKi in test [1] is below 6.00; in test [2], above 6.30.

For `CCCC(c1nc2ncc(Br)cc2c(=O)n1CCC)N1CCCN(C)CC1` (stereo not shown) [Example 181, 6-bromo-2-(1-(4-methyl-1,4-diazepan-1-yl)butyl)-3-propylpyrido[2,3-d]pyrimidin-4(3H)-one], the pKi is below 6.00 in test [1] and above 6.30 in test [2].

In the case of `CCCC(c1nc2ncc(F)cc2c(=O)n1CC)N1CCCN(C)CC1` (stereo not shown) [Example 182], the pKi in test [1] was below 6.00; in test [2], above 6.30.

Consider `CCCC(c1nc2ncc(Br)cc2c(=O)n1CC1CC1)N1CCCN(C)CC1` (stereo not shown) [Example 183, 6-bromo-3-(cyclopropylmethyl)-2-(1-(4-methyl-1,4-diazepan-1-yl)butyl)pyrido[2,3-d]pyrimidin-4(3H)-one], for which the pKi in test [1] was below 6.00; in test [2], above 6.30.

In the case of `CCCC(c1nc2ncc(F)cc2c(=O)n1CC1CC1)N1CCCN(C)CC1` (stereo not shown) [Example 184, 3-(cyclopropylmethyl)-6-fluoro-2-(1-(4-methyl-1,4-diazepan-1-yl)butyl)pyrido[2,3-d]pyrimidin-4(3H)-one], the pKi in test [1] was below 6.00; in test [2] it was above 6.30.

For the compound `CCCC(c1nc2ncc(F)cc2c(=O)n1CC1CC1)N1CCCN(CC)CC1` (stereo not shown) [Example 185, 3-(cyclopropylmethyl)-2-(1-(4-ethyl-1,4-diazepan-1-yl)butyl)-6-fluoropyrido[2,3-d]pyrimidin-4(3H)-one], the results for the pKi in test [1] and in test [2] were below 6.00 and above 6.30, respectively.

For the compound `CCC[C@H](c1nc2ncc(Br)cc2c(=O)n1CC)N1CCN(C)C[C@@H](C)C1` [Example 186, 6-bromo-2-((R)-1-((R)-4,6-dimethyl-1,4-diazepan-1-yl)butyl)-3-ethylpyrido[2,3-d]pyrimidin-4(3H)-one], the pKi is below 6.00 in test [1] and above 6.30 in test [2].

Regarding `CCC[C@H](c1nc2ncc(Br)cc2c(=O)n1CC)N1CCN(C)C[C@H](C)C1` [Example 187, 6-bromo-2-((R)-1-((S)-4,6-dimethyl-1,4-diazepan-1-yl)butyl)-3-ethylpyrido[2,3-d]pyrimidin-4(3H)-one], the pKi in test [1] was below 6.00; in test [2] it was above 6.30.

Regarding `CCC[C@@H](c1nc2ncc(Br)cc2c(=O)n1CC)N1CCN(C)C[C@H](C)C1` [Example 188, 6-bromo-2-((S)-1-((S)-4,6-dimethyl-1,4-diazepan-1-yl)butyl)-3-ethylpyrido[2,3-d]pyrimidin-4(3H)-one], the negative logarithm of the Ki (pKi) in test [1] was below 6.00; in test [2], below 5.30.

Consider `CCC[C@@H](c1nc2ncc(Br)cc2c(=O)n1CC)N1CCN(C)C[C@@H](C)C1` [Example 189, 6-bromo-2-((S)-1-((R)-4,6-dimethyl-1,4-diazepan-1-yl)butyl)-3-ethylpyrido[2,3-d]pyrimidin-4(3H)-one], for which the figures for the pKi in test [1] and in test [2] were below 6.00 and below 5.30, respectively.

On to `CCCC(c1nc2nc(C(F)(F)F)ccc2c(=O)n1CC)N1CCCN(C)CC1` (stereo not shown) [Example 190, 3-ethyl-2-(1-(4-methyl-1,4-diazepan-1-yl)butyl)-7-(trifluoromethyl)pyrido[2,3-d]pyrimidin-4(3H)-one], for which the pKi in test [1] is below 6.00; in test [2], 5.30 to 6.30.
